According to US10174065B2, “Antidiabetic enolic glucoside of phenylpyruvic acid” (ZADEC APS, priority 2010, dated 2019):

Assays:
[1] = tested on: Chang cells; test: 2-deoxy-[3H]-D-glucose uptake assay; format: cell-based; details: Chang cell cultures, 3 hrs exposure
Procedure: The glucose uptake of RX-1 and selected analogues after administration of test compounds to Chang cell cultures were determined in an operating protocol for the 2-deoxy-[^3H]-D-glucose. The protocol, which is described in more detail below, has been designed to test for the RX-1 (and RX-1 analogues) mediated glucose uptake. In Table the EC50 values for the uptake for RX-1 and representative analogues is shown.
Stock solutions of the RX-1 analogues supplied in cryo vials (DrugMode) was prepared by diluting the compound with […] sterile tissue culture grade water. This will yield a 5 mM stock solution. If the analogue […] an additional 50 μl methanol will be added (this will be recorded clearly on the log sheet). This will yield a 4 mM stock solution. Stock solutions will be kept on ice at all times and analogues will be stored in 20 μl aliquots at −80 C for subsequent use. Tubes that have been thawed will be clearly marked on the label.
RX-1 (10 μM) Positive Control Solution • To prepare a 10 μM RX-1 solution as positive control. Add 30 μl to 2970 μl modified DMEM media supplemented with 8 mM glucose.
RX-1 Analogue (31.6 μM) Test Solutions • To prepare a 31.6 μM RX-1 analogue test solution. Add 19 μl of the 5 mM to 2981 μl modified DMEM media supplemented with 8 mM glucose. To prepare a 31.6 μM RX-1 analogue test solution from a 4 mM stock solution, add 24 μl to 2976 μl modified DMEM media supplemented with 8 mM glucose.
Cell Seeding in 24-Well Plates • Chang cells are cultured according to procedures described in MRC cell culture SOPs: TC-B2a Thawing of cells and TC-B1a Cell line maintenance—general principles. Make sure cells are in the log phase (i.e. <70% confluence) and less than 20 passages. • Harvest cells using 0.25% (w/v) Trypsin/0.53 mM EDTA solution. • Count cells and resuspend to 30 000 cells/ml (Chang cell seeding density for 24-well plate=30 000 cells/ml) in EMEM (with pyruvate and NEAA, but without L-glutamate (Lonza, USA) containing 10% FBS (Gibco, UK) and pipette 1 ml/well cell suspension to a 24-well plate corresponding to 30 000 cells/well.
• after 3 days of cell growth, aspirate medium • wash cells once with pre-warmed DPBS at 37° C. • add 500 μl of pre-warmed 37° C. DMEM/0.1% BSA (without phenol red, glucose and pyruvate) to serum starve cells to remove residual glucose and FBS • incubate at 37° C. in humidified air and 5% CO2 for 30 min • aspirate DMEM/0.1% BSA (without phenol red, glucose and pyruvate) • Prepare test dilutions as specified in the plate layout (see below) • add 500 μl pre-warmed 37° C. of test dilution per well according to plate layout • incubate at 37° C. in humidified air and 5% CO2 for 3 hrs • remove test medium and wash cells once with DPBS (37° C.) • add 250 μl of test medium containing 0.5 μCi/ml ^3H-2-DOG to each well use (0.5 μl ^3H to 1 ml medium) • Incubate cells at 37° C. in humidified air and 5% CO2 for 15 min • Aspirate medium • To stop the reaction, wash cells twice with ice-cold DPBS • Aspirate DPBS and ensure that wells are as dry as possible • Lyse cells by adding 1 ml of 0.3N NaOH/1% SDS and incubate at 37° C. for at least 45 min • Mix cell lysate thoroughly before subsequent use in LSC and Bradford protein determination

[2] = tested on: gene expression in muscle; test: Quantitative real-time PCR gene expression in muscle of obese, insulin resistant Wistar rats; format: in vivo
Procedure: Three week old male rats were fed a high fat diet for 24 weeks to induce obesity and insulin resistance. Thereafter, rats were treated with 0.3 mg/kg Rx-1 daily for two weeks, and then with 3 mg/kg Rx-1 daily for seven days. Fasting glucose concentrations were measured before treatment, after two weeks treatment with 0.3 mg/kg Rx-1 and then again after seven days treatment with 3 mg/kg Rx-1. After treatment with 3 mg/kg Rx-1 rats were terminated and liver, muscle and pancreas biopsies were taken. Quantitative real-time PCR was used to measure the expression of 12 genes in liver and muscle samples, and ten genes in pancreas samples.
Rats were housed at the Primate Unit (Medical Research Council, South Africa). Rat management including feeding, glucose measurements and terminations, were done according to standard operating procedures (Diabetes Discovery Platform, Medical Research Council). Briefly, three week old rats were fed a high fat diet for 24 weeks to induce T2D. The study group consisted of thirteen rats, eight rats were treated by daily gavage with 0.3 mg/kg Rx-1 for two weeks, and then with 3 mg/kg Rx-1 for seven days. Five rats were used as controls and were treated with water only for three weeks. Rats were terminated after treatment and liver, muscle and pancreas tissue harvested and stored in RNalater (Ambion) as recommended by the manufacturer. The study was approved by the ethics committee of the Medical Research Council of South Africa.
RNA extracted from liver, muscle and pancreas tissue was converted to cDNA using the High Capacity Reverse Transcription kit as recommended by the manufacturers (Applied Biosystems). In brief, 2 μg of DNase-treated RNA was added to nuclease-free water in a volume of 10 μl. Thereafter, 2 μl reaction buffer, 0.8 μl dNTPs, 2 μl random primers, 1 μl RNase-inhibitor, 1 μl reverse transcriptase, and 3.2 μl nuclease-free water were added. The same reaction without the reverse transcription enzyme (minus RT reaction) was set-up to investigate genomic DNA contamination. Reactions were incubated at 25° C. for 10 min, 37° C. for 120 min, and 85° C. for 5 s to inactivate the reverse transcriptase. cDNA samples were stored at −20° C. until expression analysis.
For analysis of gene expression, 25 ng of cDNA prepared from liver, muscle and pancreas was mixed with 12.5 μl Taqman universal PCR master mix (Applied Biosystems), 1.25 μl gene-specific primer and probe mixtures (predeveloped Taqman gene expression assays, Applied Biosystems), and H2O in a final volume of 25 μl. The suffix _m represents an assay whose probe spans an exon-exon junction of the associated gene and therefore will not detect genomic DNA, while the suffix _s represents an assay whose primers and probes are designed within a single exon, such assays will detect genomic DNA.
The PCR reactions were conducted on the ABI 7500 Sequence Detection System Instrument (Applied Biosystems) using universal cycling conditions as described before. All samples were run in duplicate. Data generated on the ABI 7500 Instrument were analysed with the ABI Relative Quantitation (RQ) software (SDS V1.4) using a Ct threshold of 0.1. Relative expression levels were determined by using the 2^−ΔΔCt method, where ΔΔCt=(Ctgene studied−Cthousekeeping gene)treated−(Ctgene studied−Cthousekeeping gene)control. The gene expression was normalised to housekeeping genes to correct for differences in cDNA loading. Two gene expression assays, β-actin (ActB) and glyceraldehyde-3-phosphate dehydrogenase (Gapdh) (Table 1) were used as endogenous controls. Relative gene expression data generated by the RQ software for each of the two endogenous controls individually or the data normalised to the average of the two endogenous controls were imported into Microsoft Excel and analysed. […]

O=C(O)/C(=C/c1ccccc1)O[C@@H]1O[C@H](CO)[C@@H](O)[C@H](O)[C@H]1O [RX-1, 3-Phenyl-2-(3,4,5-trihydroxy-6-hydroxymethyl-tetrahydro-pyran-2-yloxy)-acrylic acid]
EC50 [1]: 3.22 µM
Gck mRNA levels [2]: decreased
Glut4 mRNA levels [2]: unaffected
IR gene expression [2]: did not affect
IRS1 mRNA levels [2]: unchanged
IRS2 mRNA levels [2]: unchanged
GcgR gene expression ([2]; not statistically significant): increased
SOCS1 mRNA expression ([2]; not statistically significant): increased
SOCS3 mRNA expression ([2]; not statistically significant): increased
